Laboratory results taken from US8822482B2, “Icotinib hydrochloride, synthesis, crystalline forms, pharmaceutical compositions, and uses thereof” (Beta Pharma, Inc., priority 2008, dated 2014).

How the values were obtained:
[1] = test system: human A431 (human epidermoid carcinoma cell line) xenograft tumor; experiment: Tumor inhibition on human A431 xenograft in nude mice; type: in vivo, BALB/C nude mice
Source text: This was a preliminary study to compare Icotinib hydrochloride Crystalline Form I with erlotinib hydrochloride on inhibition of human A431 (human epidermoid carcinoma cell line) xenograft tumor.
Methods: The high EGFR-expressing human A431 (human epidermoid carcinoma cell line) cell line was selected for the xenograft study.
Tumor transplantation method: A431 human epidermoid cancer cells were inoculated subcutaneously in the right armpit of BALB/C nude mice to generate tumor nodules. These nodules were harvested, cut into 6 mm^3 blocks for routine inoculation and implanted into each mouse for the study. When tumors reached approximately 20 mm^3 in size (6-7 days), the animals were randomly divided into 4 groups of 6-9 animals/each group and body weights were recorded. The groups consisted of a control group (no drug treatment), an erlotinib hydrochloride treatment group (200 mg/kg) and high and low dose Icotinib hydrochloride Crystalline Form I treatment groups (200 and 50 mg/kg). Drugs were administered by oral gavage once daily; dosing frequency depended on the individual case for tumor growth. Tumor volume [tumor volume (V)=tumor size (L)×short diameter of tumor (S)^2/2] was measured using calipers once every 3 days. The animals were sacrificed 24-hour after the last drug administration and weighed. The tumor was removed and weighed to accurately calculate the tumor size. All group data was analyzed using the t test. If the p value was <0.05, it was considered to be statistically significant. Efficacy determination: tumor inhibition rate=[1−treatment group mean tumor weight (T)/control group mean tumor weight (C)]×100%

in vivo = experiment: in vivo
Description: In addition, non-clinical pharmacokinetic studies of Icotinib hydrochloride Crystalline Form I in Beagle dogs and rats were conducted.

[2] = test system: advanced non-small cell lung cancer (NSCLC); experiment: Phase IIa clinical trial in advanced NSCLC patients; type: in vivo, human
Source text: Definitions of terms used: PR: partial remission, CR: complete remission, SD: stable disease, PD: progression of disease, ORR: objective response rate, DCR: disease control rate.

[3] = Pharmacokinetic study of the different crystalline forms and the free base in rats; type: in vivo, Wistar rats; conditions: for The area under the concentration-time curve (0-infinity) / The area under the concentration-time curve (0-t): fasted Wistar rats, oral suspension, dose equivalent to 35 mg/kg Icotinib hydrochloride, plasma, hydrochloride
Description: Drugs and reagents: Icotinib (free base) and Icotinib hydrochloride crystalline forms I, II, III, and IV were ground to fine particles. The material content (purity) was not less than 99.0%. Sodium carboxymethyl cellulose was medical supply graded. Experimental animals: Wistar rats, male and female, 150-220 g each. Pharmaceutical preparation: Weigh the appropriate amount of each substance and add sodium carboxymethyl cellulose to 0.5%. Prepare a suspension at a final concentration of 3.5 mg/mL in water. Administration and sample collection: Each suspension was administered orally to fasted Wistar rats at a dose equivalent to 35 mg/kg Icotinib hydrochloride in a dose volume of 10 ml/kg. […] After purification, samples were analyzed by high performance liquid chromatography. The chromatographic conditions utilized C18-silane bonded silica as stationary phase, 0.02 mol/L of sodium dihydrogen phosphate in acetonitrile (40:60, using sodium hydroxide solution to adjust pH to 5.0) as the mobile phase and a detection wavelength of 334 nm.

[4] = 225 mg/day (75 mg, 3 times a day)
[5] = 300 mg/day (100 mg, 3 times a day)
[6] = 300 mg/day (150 mg, Twice a day)
[7] = 375 mg/day (125 mg, 3 times a day)
[8] = 400 mg/day (200 mg, Twice a day)
[9] = 450 mg/day (150 mg, 3 times a day)
[10] = 600 mg/day (200 mg, 3 times a day)

C#Cc1cccc(Nc2ncnc3cc4c(cc23)OCCOCCOCCO4)c1.Cl [4-[(3-ethynyl-phenyl)amino]-6,7-benzo-12-crown-quinazoline hydrochloride]
body weight and appearance at experiment termination ([1]; A431 xenograft nude mice): gained weight | tumor inhibition rate ([1]; A431 xenograft, 200 mg/kg oral gavage once daily (later reduced to 100 mg/kg)): 64.6% | toxic effects ([1]; at either dose (200 and 50 mg/kg)): No toxic effects were observed | anti-tumor effect (in words) ([1]; given orally, A431 xenograft mouse model): significant anti-tumor effects | route of elimination (in vivo): mainly through fecal excretion | tissue distribution (in vivo): widely distributed to various tissues, but was low in brain tissue | Tmax (in vivo; Beagle (dogs), rat, dog, po): ~1 h | bioavailability (in vivo; Beagle (dogs), rat, dog, po): 27 to 62% | CR (complete remission), number of patients [2, 4]: 0 | DCR (disease control rate) [2, 4]: 85.70% | ORR (objective response rate) [2, 4]: 0.00% | PD (progression of disease), number of patients [2, 4]: 1 | PR (partial remission), number of patients [2, 4]: 0 | CR (complete remission), number of patients [2, 5]: 2 | DCR (disease control rate) [2, 5]: 62.96% | ORR (objective response rate) [2, 5]: 25.93% | PD (progression of disease), number of patients [2, 5]: 10 | PR (partial remission), number of patients [2, 5]: 5 | CR (complete remission), number of patients [2, 6]: 1 | DCR (disease control rate) [2, 6]: 69.57% | ORR (objective response rate) [2, 6]: 30.43% | PD (progression of disease), number of patients [2, 6]: 4 | PR (partial remission), number of patients [2, 6]: 6 | CR (complete remission), number of patients [2, 7]: 0 | DCR (disease control rate) [2, 7]: 91.70% | ORR (objective response rate) [2, 7]: 37.50% | PD (progression of disease), number of patients [2, 7]: 2 | PR (partial remission), number of patients [2, 7]: 9 | CR (complete remission), number of patients [2, 8]: 0 | DCR (disease control rate) [2, 8]: 55.56% | ORR (objective response rate) [2, 8]: 0.00% | PD (progression of disease), number of patients [2, 8]: 3 | PR (partial remission), number of patients [2, 8]: 0 | CR (complete remission), number of patients [2, 9]: 0 | DCR (disease control rate) [2, 9]: 90.10% | ORR (objective response rate) [2, 9]: 45.45% | PD (progression of disease), number of patients [2, 9]: 1 | PR (partial remission), number of patients [2, 9]: 5 | CR (complete remission), number of patients [2, 10]: 0 | DCR (disease control rate) [2, 10]: 66.67% | ORR (objective response rate) [2, 10]: 0.00% | PD (progression of disease), number of patients [2, 10]: 1 | treatment of non-small cell lung cancer (in words) ([2]; advanced NSCLC patients, oral tablets): effective | area under the concentration-time curve (0-t) and (0-infinity) relative to the free base form ([3]; Wistar rats, oral, 35 mg/kg equivalent): approximately 3 times | The area under the concentration-time curve (0-infinity) ([3]; listed as Crystalline Form I): 93.73 | The area under the concentration-time curve (0-t) ([3]; listed as Crystalline Form I): 91.80 | The area under the concentration-time curve (0-infinity) ([3]; listed as Crystalline Form II): 90.77 | The area under the concentration-time curve (0-t) ([3]; listed as Crystalline Form II): 88.28 | The area under the concentration-time curve (0-infinity) ([3]; listed as Crystalline Form III): 90.26 | The area under the concentration-time curve (0-t) ([3]; listed as Crystalline Form III): 89.23 | The area under the concentration-time curve (0-infinity) ([3]; listed as Crystalline Form IV): 90.23 | The area under the concentration-time curve (0-t) ([3]; listed as Crystalline Form IV): 86.29
